# Experimental data: patent publication US20110237538A1, “TREATMENT OF LYSOSOMAL STORAGE DISORDERS AND OTHER PROTEOSTATIC DISEASES” (SUMMIT CORPORATION PLC, priority 2008, published 2011)
# How the values were obtained:
# Type in all cases: biochemical
# [1] = system: α-D-glucosidase (Bacillus sterothermophilus); test: glycosidase assay with p-nitrophenyl substrates (Example 2); settings: 10 μl of 5 mM iminosugar solution in 70 μl incubation mixture; 20° C.
# Method: (§1) The assays were conducted as described by Watson et al. 1997, Phytochemistry 46: 255-259 using p-nitrophenyl-substrates. Assays were carried out in microtitre plates. Enzymes were assayed in 0.1M citric acid/0.2M di-sodium hydrogen phosphate (Mcllvaine) buffers at the optimum pH for the enzyme. All assays were carried out at 20° C. All enzymes and substrates were purchased from Sigma Aldrich Chemicals Limited. The incubation mixture consisted of 10 μl of enzyme solution, 10 μl of the iminosugars solution (made up in deionised water at 5 mM) and 50 μl of the appropriate 5 mM p-nitrophenyl substrate made up in McIlvaine buffer at the optimum pH for the enzyme. The reactions were stopped with 0.4M glycine (pH 10.4) during the exponential phase of the reaction, which was determined at the beginning of the assay using blanks with water, which were incubated for a range of time periods to measure the reaction rate using 5 mM substrate solution. Absorbances were read at 405 nm. Water was substituted for the inhibitors in the blanks.
# (§2) The glycosidases used were α-D-glucosidase (yeast), α-D-glucosidase (Bacillus sterothermophilus), α-D-glucosidase (rice), amyloglucosidase (Aspergillus niger), β-D-glucosidase (almond), α-D-galactosidase (green coffee beans), β-D-galactosidase (bovine liver), α-L-fucosidase (bovine kidney), α-D-mannosidase (Jack bean), β-D-mannosidase (Cellullomonas fimi), Naringinase (Penicillium decumbens), N-acetyl-β-D-glucosaminidase (Bovine kidney), N-acetyl-β-D-glucosaminidase (Aspergillus oryzae) and N-acetyl-β-D-glucosaminidase (Jack bean)
# [2] = target: T1, α-D-galactosidase (green coffee beans) (Coffea arabica, UniProt Q42656); test: as above; settings: 10 μl of 5 mM iminosugar solution in 70 μl incubation mixture; 20° C.; read-out: Promotion of glycosidase activity: α-D-galactosidase (Green coffee bean)
# T1 construct: purchased Sigma Aldrich Chemicals Limited
# Method: as §1, §2
# [3] = target: T2, Jack bean α-D-mannosidase (Canavalia ensiformis, UniProt C0HJB3); test: α-mannosidase activity assay with p-nitrophenyl-α-D-mannopyranoside (Example 1)
# T2 construct: purchased Sigma M7257
# T2 sequence (C0HJB3 1-981): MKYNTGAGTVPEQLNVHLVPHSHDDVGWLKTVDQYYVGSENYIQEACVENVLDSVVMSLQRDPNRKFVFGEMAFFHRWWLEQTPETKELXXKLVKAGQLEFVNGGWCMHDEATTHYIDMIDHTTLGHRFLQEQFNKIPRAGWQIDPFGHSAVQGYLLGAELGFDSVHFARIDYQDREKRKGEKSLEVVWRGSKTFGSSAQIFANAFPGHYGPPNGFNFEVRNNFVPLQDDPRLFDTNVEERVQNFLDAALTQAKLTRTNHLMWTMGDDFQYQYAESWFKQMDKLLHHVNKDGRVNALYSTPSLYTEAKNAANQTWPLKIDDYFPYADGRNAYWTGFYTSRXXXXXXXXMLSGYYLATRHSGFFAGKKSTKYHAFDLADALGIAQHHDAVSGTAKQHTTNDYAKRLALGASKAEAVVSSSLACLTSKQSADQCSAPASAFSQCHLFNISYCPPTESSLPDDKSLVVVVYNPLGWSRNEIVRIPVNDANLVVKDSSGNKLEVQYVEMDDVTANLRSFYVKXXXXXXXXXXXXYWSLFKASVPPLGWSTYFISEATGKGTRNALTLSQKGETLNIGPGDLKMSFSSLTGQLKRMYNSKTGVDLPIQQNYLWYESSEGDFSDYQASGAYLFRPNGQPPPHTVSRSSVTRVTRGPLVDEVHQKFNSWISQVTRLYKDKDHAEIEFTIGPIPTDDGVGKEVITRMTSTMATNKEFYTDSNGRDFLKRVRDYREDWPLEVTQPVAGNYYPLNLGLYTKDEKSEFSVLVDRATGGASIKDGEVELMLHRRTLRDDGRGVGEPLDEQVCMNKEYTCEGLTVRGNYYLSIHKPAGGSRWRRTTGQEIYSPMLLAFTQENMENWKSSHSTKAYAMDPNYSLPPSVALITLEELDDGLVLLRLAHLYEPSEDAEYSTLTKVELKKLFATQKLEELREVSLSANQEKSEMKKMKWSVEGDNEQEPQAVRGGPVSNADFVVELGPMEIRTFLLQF
# Method: Solutions of 0.2M Mcllvane buffer at pH 4.5 and 5 mM p-nitrophenyl-α-D-mannopyranoside (Sigma, N2127), dissolved in the buffer, were prepared. A solution of Jack bean α-D-mannosidase enzyme (Sigma, M7257, 22 Units/mg, 6.2 mg/ml.) was also prepared at 0.6 Units/ml in the buffer.
# The incubation mixture consisted of 10 μl enzyme solution, 10 μl of 1 mg/ml aqueous iminosugar solution and 50 μl of 5 mM substrate made up in buffer at the optimum pH for the enzyme. The reactions were stopped by addition of 70 μl 0.4M glycine (pH 10.4) during the exponential phase of the reaction, which had been determined at the beginning using uninhibited assays in which water replaced inhibitor. Final absorbances were read at 405 nm using a Versamax microplate reader (Molecular Devices). Assays were carried out in triplicate, and the values given are means of the three replicates. Results were expressed as a percentage of uninhibited assays in which water replaced inhibitor.
# [4] = target: T3, wild type (wt) alpha-galactosidase (Homo sapiens, UniProt P06280); test: alpha-galactosidase activity assay in HL60 lysate (4MU-α-D-gal); settings: at a concentration of 100 uM, 0.5 mM 4MU-α-D-gal, pH 4.5
# T3 construct: The lysates were used as a source for wild type (wt) alpha-galactosidase; endogenous in cells; host or cells: HL60 (ECACC No. 98070106) lysate
# T3 sequence (P06280 32-429): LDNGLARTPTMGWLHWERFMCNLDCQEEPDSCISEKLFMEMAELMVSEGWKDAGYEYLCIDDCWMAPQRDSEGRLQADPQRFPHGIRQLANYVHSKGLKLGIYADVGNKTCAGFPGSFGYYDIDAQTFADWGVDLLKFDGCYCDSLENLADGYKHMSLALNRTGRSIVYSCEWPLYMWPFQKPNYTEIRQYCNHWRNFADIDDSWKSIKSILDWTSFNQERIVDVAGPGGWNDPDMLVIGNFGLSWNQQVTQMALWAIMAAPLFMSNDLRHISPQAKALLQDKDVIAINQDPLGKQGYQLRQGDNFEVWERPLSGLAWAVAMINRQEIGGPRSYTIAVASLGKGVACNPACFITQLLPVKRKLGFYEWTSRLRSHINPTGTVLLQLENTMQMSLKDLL
# [5] = target: T4, α-D-mannosidase (Jack bean) (Canavalia ensiformis, UniProt C0HJB3); test: glycosidase assay with p-nitrophenyl substrates (Example 2); settings: 10 μl of 5 mM iminosugar solution in 70 μl incubation mixture; 20° C.
# T4 construct: purchased Sigma Aldrich Chemicals Limited
# T4 sequence (C0HJB3 1-981): T2 sequence (C0HJB3 1-981)
# Method: as §1, §2
# [6] = target: T5, wild type (wt) beta-glucocerebrosidase (Homo sapiens, UniProt P04062); test: beta-glucocerebrosidase activity assay in HL60 lysate (4MU-β-D-glc); settings: at a concentration of 100 μM, 0.5 mM 4MU-β-D-glc;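 further: fluorometric read-out of 4MU liberated from the substrate (ex 360 nm, em 450 nm) after 37 °C incubation, reaction stopped with sodium carbonate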
# T5 construct: The lysates were used as a source for wild type (wt) beta-glucocerebrosidase; endogenous in cells; host or cells: HL60 (ECACC No. 98070106) lysate
# T5 sequence (P04062 40-536): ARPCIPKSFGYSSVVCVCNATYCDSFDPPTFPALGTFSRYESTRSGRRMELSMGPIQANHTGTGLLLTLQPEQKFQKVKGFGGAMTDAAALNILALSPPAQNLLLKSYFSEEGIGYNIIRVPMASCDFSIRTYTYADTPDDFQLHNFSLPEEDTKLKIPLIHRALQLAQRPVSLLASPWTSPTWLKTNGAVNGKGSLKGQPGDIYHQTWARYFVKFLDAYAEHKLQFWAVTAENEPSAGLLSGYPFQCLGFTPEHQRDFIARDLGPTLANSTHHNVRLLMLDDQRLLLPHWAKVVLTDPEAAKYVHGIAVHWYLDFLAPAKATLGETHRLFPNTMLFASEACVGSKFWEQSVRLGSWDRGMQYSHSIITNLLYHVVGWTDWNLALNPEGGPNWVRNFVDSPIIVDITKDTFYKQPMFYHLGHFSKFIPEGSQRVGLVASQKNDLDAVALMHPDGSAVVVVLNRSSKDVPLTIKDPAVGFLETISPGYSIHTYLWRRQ
# [7] = Jack Bean α-mannosidase, p-nitrophenyl-α-D-mannopyranoside as the substrate
# T1 sequence (Q42656 16-378): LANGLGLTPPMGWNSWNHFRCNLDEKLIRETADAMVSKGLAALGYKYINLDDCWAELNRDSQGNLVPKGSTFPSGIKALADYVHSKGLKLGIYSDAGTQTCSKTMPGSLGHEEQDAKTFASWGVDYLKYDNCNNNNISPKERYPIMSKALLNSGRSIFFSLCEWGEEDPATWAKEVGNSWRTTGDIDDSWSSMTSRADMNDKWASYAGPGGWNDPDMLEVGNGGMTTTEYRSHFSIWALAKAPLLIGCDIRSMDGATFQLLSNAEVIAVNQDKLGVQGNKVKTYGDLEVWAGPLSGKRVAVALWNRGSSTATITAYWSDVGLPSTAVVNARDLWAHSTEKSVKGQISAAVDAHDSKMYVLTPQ
compound,measurement,setting,value
"CCCCCCCCCN1C[C@H](NC(C)=O)[C@@H](O)[C@@H]1CO [Compound 338, N-((3S,4R,5S)-4-hydroxy-5-(hydroxymethyl)-1-nonylpyrrolidin-3-yl)acetamide]",Promotion of glycosidase activity: α-D-glucosidase (Bacillus sterothermophilus),[1],170 % increase in absorbance compared to the water controls
same,activation at 714 µM,[2],35%
"N[C@@H]1CN(Cc2ccccc2)[C@H](CO)[C@H]1O [Compound 370, (2R,3S,4R)-4-amino-1-benzyl-2-(hydroxymethyl)pyrrolidin-3-ol]",Promotion of glycosidase activity: α-D-glucosidase (Bacillus sterothermophilus),[1],81 % increase in absorbance compared to the water controls
same,activation at 714 µM,[2],43%
"CCCCN1C[C@@H](NC(C)=O)C[C@H]1CO [Compound 350, N-((3S,5S)-1-butyl-5-(hydroxymethyl)pyrrolidin-3-yl)acetamide]",Promotion of glycosidase activity: α-D-glucosidase (Bacillus sterothermophilus),[1],160 % increase in absorbance compared to the water controls
same,activation at 714 µM,[2],38%
"O[C@H]1[C@H]2[C@H](O)CCCN2C[C@H]1O [swainsonine, reference compound]",inhibition of the mannosidase (in words),[3]; [7],total inhibition of the promoted activity
same,promotion of the mannosidase activity (in words),[3]; [7],does not cause promotion
"N[C@H]1CN(Cc2ccccc2)[C@@H](CO)[C@@H]1O [Compound 312, (2S,3R,4S)-4-amino-1-benzyl-2-(hydroxymethyl)pyrrolidin-3-ol]",Promotion of glycosidase activity: α-D-glucosidase (Bacillus sterothermophilus),[1],52 % increase in absorbance compared to the water controls
same,activation at 714 µM,[2],30%
"O=C1NC[C@@H](O)[C@@H](O)[C@]1(O)CO [Compound 170, (3R,4R,5R)-3,4,5-trihydroxy-3-(hydroxymethyl)piperidin-2-one]",promotion of the mannosidase activity (in words),[3]; [7],promotion of the mannosidase activity
"C[C@@H]1N[C@@H](CO)[C@H](O)[C@H](O)[C@H]1O [Compound 269, (2S,3S,4R,5S,6S)-2-(hydroxymethyl)-6-methylpiperidine-3,4,5-triol]",inhibition at 100 µM,[4],> 50%
"OC[C@H]1NC[C@H](O)[C@@H](O)[C@H]1O [Compound 215, (2R,3S,4R,5S)-2-(hydroxymethyl)piperidine-3,4,5-triol]",inhibition at 100 µM,[4],> 50%
"CCCCN1C[C@@H](N)C[C@H]1CO [Compound 292, ((2S,4S)-4-amino-1-butylpyrrolidin-2-yl)methanol]",Promotion of glycosidase activity: α-D-mannosidase (Jack bean),[5],34 % increase in absorbance compared to the water controls
"C[C@H]1N[C@@H](CO)[C@H](O)[C@H](O)[C@H]1O [Compound 264, (2S,3S,4R,5S,6R)-2-(hydroxymethyl)-6-methylpiperidine-3,4,5-triol]",inhibition at 100 µM,[4],> 50%
"O[C@@H]1[C@@H](O)[C@H](O)[C@]2(O)CC[C@H]1N2 [Compound 21, (1R,2S,3R,4S,5R)-8-azabicyclo[3.2.1]octane-1,2,3,4-tetraol]",inhibition at 100 µM,[4],> 50%
same,inhibition at 100 µM,[6],> 50%
"CNC(=O)[C@H]1N[C@H](CO)[C@@H](O)[C@H](O)[C@@H]1O [Compound 246, (2S,3R,4S,5R,6R)-3,4,5-trihydroxy-6-(hydroxymethyl)-N-methylpiperidine-2-carboxamide]",inhibition at 100 µM,[4],> 50%
N[C@H]1[C@H](O)[C@H](O)[C@@H](O)[C@H](O)[C@@H]1CO [Compound A],stimulation,[3]; Compound A alone,90%
same,promotion of the mannosidase activity (in words),[3]; [7],strong stimulation
"CN1C[C@H](O)C(O)[C@@H](O)C1 [Compound 299, (3S,5S)-1-methylpiperidine-3,4,5-triol]",Promotion of glycosidase activity: α-D-mannosidase (Jack bean),[5],35 % increase in absorbance compared to the water controls
"OC[C@H](O)[C@@H]1NC[C@@](O)(CO)[C@H]1O [Compound 200, (2S,3S,4R)-2-((R)-1,2-dihydroxyethyl)-4-(hydroxymethyl)pyrrolidine-3,4-diol]",promotion of the mannosidase activity (in words),[3]; [7],promotion of the mannosidase activity
"O=C(O)[C@@]1(O)CNC[C@@H](O)[C@H]1O [Compound 87, (3R,4R,5R)-3,4,5-trihydroxypiperidine-3-carboxylic acid]",promotion of the mannosidase activity (in words),[3]; [7],promotion of the mannosidase activity
"OC[C@H]1NC[C@@H](O)[C@H](O)[C@H]1O [Compound 447, (2R,3S,4S,5R)-2-(hydroxymethyl)piperidine-3,4,5-triol]",inhibition at 100 µM,[4],> 50%
"C[C@H]1NC[C@H](O)[C@@H](O)[C@H]1O [Compound 258, (2R,3S,4R,5S)-2-methylpiperidine-3,4,5-triol]",inhibition at 100 µM,[4],> 50%
"C=CCC[C@H]1N[C@@H](CO)[C@H](O)[C@@H](O)[C@@H]1O [Compound 380, (2R,3R,4S,5S,6S)-2-(but-3-enyl)-6-(hydroxymethyl)piperidine-3,4,5-triol]",inhibition at 100 µM,[4],> 50%
